# Results: a melting point compilation (Tetko et al.)
row,Structure (SMILES),melting point
1,COc1ccc(C#N)cc1CBr,123 to 125 °C
2,Cc1cc(C)c(S(=O)(=O)Cl)c(C)c1NS(C)(=O)=O,175 to 177 °C
3,CCOCCn1c(N)cc(=O)[nH]c1=O,257 to 259 °C
4,CS(=O)(=O)c1cccnc1,54 to 56 °C
5,COc1ccc(-c2nn(-c3ccccc3)cc2C(=O)O)cc1OC,188 to 190 °C
6,O=Cc1cc(Cl)cc([N+](=O)[O-])c1O,105 to 107 °C
7,COc1cc(C=O)c(-c2ccccc2)cc1OC,133 to 135 °C
8,Cc1ccc(-c2nn(-c3ccccc3)cc2C(=O)O)o1,160 to 163 °C
9,COCCNS(=O)(=O)c1ccc(Cl)c(C(=O)O)c1,142 to 144 °C
10,CN1CCN(c2cccc(C#N)n2)CC1,59 to 61 °C
11,Cc1c(C(=O)O)nnn1-c1cccc2ncccc12,209 to 211 °C
12,Cc1cc(NC(=O)C(C)Cl)no1 (stereo not drawn),132 to 134 °C
13,FC(F)(F)c1ccccc1-c1nnc(CCl)o1,35 to 37 °C
14,O=Cc1cnc(Cl)nc1,118 to 120 °C
15,C#CCNC(=O)Nc1ccccc1Cl,173 to 175 °C
16,NC(COC1CCOCC1)=NO,79 to 81 °C
17,CCN(CC)S(=O)(=O)c1ccc(-c2csc(N)n2)cc1,234 to 236 °C
18,O=C(O)COC(c1ccccc1)c1ccccc1,81 to 83 °C
19,O=C(O)c1sccc1SC(F)F,117 to 119 °C
20,COc1ccc(C(=O)c2ccc(C)cc2)cc1,88 to 90 °C
21,CC(C)(C)Cc1cc(N)n[nH]1,106 to 108 °C

row,Structure (SMILES),melting point
1,CCNC(=O)NC(=O)CCl,138 to 140 °C
2,O=Cc1cn(-c2cccc(Cl)c2Cl)nn1,139 to 141 °C
3,CC(C)c1sc(N)nc1-c1ccccc1,231 to 233 °C
4,CC(Sc1ncn[nH]1)C(=O)O (stereo not drawn),173 to 175 °C
5,CN1CN=C(S)NC1,173 to 177 °C
6,O=C(O)C1CCN(C(=O)N2CCOCC2)CC1,131 to 133 °C
7,O=C(O)CCCc1cc(Cl)sc1Cl,42 to 44 °C
8,NS(=O)(=O)C(F)F,59 to 61 °C
9,Cc1nn(CCCl)c(C)c1C(=O)O,139 to 141 °C
10,Nc1ccccc1C(=O)NCc1cccnc1,119 to 121 °C
11,CC(=O)Nc1ccsc1,146 to 148 °C
12,Cc1cc2nc(-c3ccccc3)cc(C(=O)O)c2cc1C,251 to 253 °C
13,OCc1c(Cl)nc(Cl)n1-c1ccccc1,139 to 141 °C
14,CCCCCCc1nc(S)c2c(=O)n(C)c(=O)n(CCC)c2n1,172 to 174 °C
15,O=C(O)C1CCN(C(=O)NC2CC2)CC1,123 to 125 °C
16,Cc1sc(C(N)=O)cc1S(=O)(=O)Cl,122 to 124 °C
17,NNC(=O)Nc1ccc(S(N)(=O)=O)cc1,216 to 218 °C
18,O=C(O)c1cccn1Cc1cccnc1,172 to 174 °C
19,CCCC(=O)Nc1c(Cl)cc(Cl)cc1C(=O)O,180 to 182 °C
20,COc1cc(C=O)c([N+](=O)[O-])cc1OCC(F)(F)F,150 to 152 °C
21,Cc1cc(C)cc(-n2nnnc2S)c1,164 to 166 °C

row,Structure (SMILES),melting point
1,O=C1OC(=O)C(Cl)=C1Cl,107 to 109 °C
2,O=C(O)Cc1ccc(S(=O)(=O)N2CCOCC2)s1,116 to 118 °C
3,CCCCCCCOc1ccc(C=O)cc1OCC,43 to 47 °C
4,O=C(O)CNC(=O)NCc1ccc([N+](=O)[O-])cc1,166 to 168 °C
5,COc1cc(NC(=O)C2CCCCC2)c(C(=O)O)cc1OC,155 to 157 °C
6,CCc1sc(N)c(C(N)=O)c1C,134 to 136 °C
7,CCCS(=O)(=O)N1CCC(=NO)CC1,146 to 148 °C
8,BrC12CC3CC(C1)CC(Br)(C3)C2,108 to 110 °C
9,O=C(O)CCCCOc1ccc(Oc2ccccc2)cc1,53 to 55 °C
10,CC(C)(C)C(=O)N1CCOC(C(=O)O)C1 (stereo not drawn),148 to 150 °C
11,COC(=O)c1cc(OC)c(OC)c(OC)c1N,44 to 45 °C
12,CCn1c(C)nc2cc(S(=O)(=O)C(F)F)ccc21,161 to 163 °C
13,Cc1cccc(-c2nn(-c3ccccc3)cc2C(=O)O)c1,146 to 148 °C
14,N#Cc1c(N)cc(N)nc1S,349 to 351 °C
15,Cn1c(S)nnc1-c1cncc(N)c1,206 to 208 °C
16,CC(=O)CC(=O)c1ccc(F)cc1,48 to 52 °C
17,COC(=O)NCC(=O)O,93 to 95 °C
18,Cc1cc(C)c(S(=O)(=O)Nc2cccc(C(F)(F)F)c2)c(C)c1,88 to 90 °C
19,Clc1nccc(N2CCCC2)n1,121 to 123 °C
20,Cc1ccc(Cl)c2ccc(Cl)nc12,61 to 63 °C
21,CC(C)S(=O)(=O)c1ccc(CC(=O)O)cc1,146 to 148 °C

row,Structure (SMILES),melting point
1,NNC(=O)CCc1cccnc1,92 to 94 °C
2,Cc1nc(C(C)C)sc1C(=O)O,169 to 171 °C
3,COc1ccc(C2(C)NC(=O)NC2=O)cc1OC (stereo not drawn),177 to 179 °C
4,N#CCc1ccc(OCCBr)cc1,52 to 54 °C
5,Cc1ccc(C(=O)NN)o1,59 to 61 °C
6,O=C(Nc1nc2ccccc2s1)OCC(F)(F)F,224 to 226 °C
7,Clc1ccc(-c2nc3ccccc3[nH]2)cn1,198 to 200 °C
8,CC(Cl)C(=O)Nc1ccccc1Cl (stereo not drawn),63 to 65 °C
9,Clc1cn[nH]c1,65 to 67 °C
10,CC1(C)NC(=O)N(Cc2ccc(Cl)nc2)C1=O,127 to 129 °C
11,Cc1ccc(Oc2cccc(N(C)C)c2)c(N)c1,64 to 66 °C
12,CC(=O)c1ccc(S(=O)(=O)CC(F)F)cc1,97 to 99 °C
13,Cc1nc(=N)c(C)c(C)[nH]1,196 to 198 °C
14,Nc1nnc(C2CC2)o1,170 to 172 °C
15,CC(C)n1[nH]c(-c2ccccc2)cc1=N,83 to 85 °C
16,CC(=O)c1cc(N)cc(C(C)=O)c1,139 to 141 °C
17,CN(CC(=O)O)c1cnccn1,170 to 172 °C
18,NC(Cc1nc2ccccc2s1)=NO,159 to 161 °C
19,CN(C)S(=O)(=O)c1ccc2[nH]c(=O)c(=O)[nH]c2c1,319 to 321 °C

# Other lines, results leading:
row,melting point,Structure (SMILES)
1,69 to 71 °C,OC1CCc2cc(Br)ccc21 (stereo not drawn)
2,132 to 134 °C,NC(=S)c1cccc([N+](=O)[O-])c1
3,207 to 209 °C,NNC(=O)c1cc(-c2ccccc2)n[nH]1
4,258 to 260 °C,N#C/C(=C/c1c[nH]nc1-c1cccc(Br)c1)C(=O)O
5,133 to 135 °C,N#CCc1nc2cc(F)ccc2s1
6,247 to 249 °C,Nc1nnc(-c2ccc3c(c2)OCCO3)o1
7,177 to 179 °C,Nc1cccc(CNC(=O)Nc2ccccc2Cl)c1
8,183 to 185 °C,O=C(Nc1ccc(F)cc1)N1CCC(=NO)CC1
9,279 to 281 °C,N#Cc1ccc2cc(C(=O)O)ccc2c1
10,48 to 50 °C,c1cnc2c(NC3CCC3)cccc2c1
11,246 to 248 °C,COc1ccc(Br)c2[nH]c(C(=O)O)cc12
12,166 to 168 °C,O=C(O)c1ccc(C2SCCS2)cc1
13,174 to 176 °C,Cc1ccc(C23CC4CC(CC(C(=O)O)(C4)C2)C3)cc1
14,110 to 112 °C,c1ccc2c(c1)CC(n1ccnc1)CN2 (stereo not drawn)
15,190 to 192 °C,CC(Cl)C(=O)c1c[nH]c2ccccc12 (stereo not drawn)
16,127 to 135 °C,Cc1ccc(S(=O)(=O)N2CCOCC2)cc1N
17,141 to 143 °C,N#CCCNc1cccc(Cl)c1
18,189 to 191 °C,COc1ccc2c(c1)C1(CC2)NC(=O)NC1=O (stereo not drawn)
19,255 to 257 °C,COc1ccc(C(=O)N2CCCC(C(=O)O)C2)c2ccccc12 (stereo not drawn)
20,149 to 151 °C,CC(C)Oc1ccc(S(=O)(=O)N2CCOCC2)cc1N
21,173 to 175 °C,COc1ccc(C(=O)NNC(=O)CCl)cc1OC

row,melting point,Structure (SMILES)
1,129 to 131 °C,CCOc1cccc(S(N)(=O)=O)c1
2,115 to 117 °C,O=C(O)c1ccc(F)cc1OC(F)F
3,94 to 96 °C,O=C(CCl)NCC1Cc2ccccc2O1 (stereo not drawn)
4,146 to 148 °C,Cc1ccc(-n2nc(C)c(CC(=O)O)c2C)cc1Cl
5,113 to 115 °C,CC(=O)c1nnn(-c2ccc(Cl)cc2)c1C
6,86 to 88 °C,OCCOc1ccc(O)cc1
7,89 to 91 °C,CCCOc1ccc2[nH]cc(CO)c2c1
8,219 to 221 °C,NS(=O)(=O)c1ccc(Cl)c(C(=O)O)c1
9,228 to 230 °C,O=C1NCCc2ccc([N+](=O)[O-])cc21
10,162 to 164 °C,O=C(O)CS(=O)(=O)c1ccc([N+](=O)[O-])cc1
11,264 to 266 °C,O=C1NC(=O)C2(Cc3ccccc3C2)N1
12,77 to 79 °C,Cc1ccc(S(=O)(=O)C2CCCCC2=O)cc1 (stereo not drawn)
13,77 to 79 °C,CC(=O)c1nc(-c2ccccc2)cs1
14,61 to 63 °C,Cc1csc(Sc2ccc(N)c(C)c2)n1
15,131 to 133 °C,Cc1ccc(N)cc1S(=O)(=O)NC(C)(C)C
16,36 to 38 °C,CC(O)Cc1ccc(Br)c(F)c1 (stereo not drawn)
17,146 to 148 °C,O=C(O)COc1cc(Cl)ccc1Cl
18,78 to 80 °C,O=C(c1cnc(Cl)c(Cl)c1)N1CCOCC1
19,148 to 150 °C,NC(=O)c1ccc(N)cc1F
20,145 to 147 °C,O=C(c1cccc([N+](=O)[O-])c1)N1CCNCC1
21,160 to 162 °C,CC1CCN(c2ccc([N+](=O)[O-])cc2C(=O)O)CC1

row,melting point,Structure (SMILES)
1,77 to 79 °C,Nc1cc(C2CCC2)no1
2,186 to 188 °C,NS(=O)(=O)c1ccc(F)c(C(=O)O)c1
3,177 to 179 °C,O=C(Cc1ccc(Br)cc1)NC(C(=O)O)c1ccccc1 (stereo not drawn)
4,91 to 93 °C,O=C(O)CCCc1ccc2ccccc2c1
5,168 to 170 °C,COc1cccc(NC(=S)NN)c1
6,251 to 253 °C,CC(=O)Oc1cccc2ccc(O)nc12
7,266 to 268 °C,Cc1ccc(-c2cncc(C(=O)O)c2)cc1
8,301 to 303 °C,CC(N)(C(=O)O)c1cc(F)ccc1F (stereo not drawn)
9,129 to 131 °C,C#Cc1ccc(C(=O)O)cn1
10,110 to 114 °C,Nc1sc2c(c1C(=O)c1cccc(F)c1)CCCC2
11,77 to 79 °C,c1cc2c(cn1)CCN2
12,109 to 111 °C,O=C(O)CC(Br)C(=O)c1ccc(Br)cc1 (stereo not drawn)
13,103 to 105 °C,COc1cc(C(C)N)ccc1OCCO (stereo not drawn)
14,238 to 240 °C,O=C(NC1(C(=O)O)CCCCC1)c1ccc(Br)cc1
15,80 to 82 °C,OCc1noc(-c2ccccc2)n1
16,96 to 98 °C,CC(=O)c1nc2cc(Cl)ccc2n1C
17,65 to 67 °C,COc1ccc(NC(=O)C(C)Cl)c(OC)c1 (stereo not drawn)
18,209 to 211 °C,O=C(O)CCc1ccncc1
19,177 to 179 °C,O=C(O)CNC(=O)c1cc2c(s1)CCCC2
